The values that follow come from ChEMBL document CHEMBL1159308, “A new triterpene saponin from Pittosporum viridiflorum from the Madagascar rainforest” (J Nat Prod, 2002).

Assay [1] deals with Saccharomyces cerevisiae. As to the kind of experiment: DNA damaging activity against yeast 1138 mutant assessed as drug level required to produce 12 mm zone of inhibition. In kind it is functional.
The subject of assay [2] is Saccharomyces cerevisiae. As to the kind of experiment: DNA damaging activity against yeast 1140 mutant assessed as drug level required to produce 12 mm zone of inhibition. In kind it is functional.
Assay [3] concerns Saccharomyces cerevisiae. Briefly: DNA damaging activity against yeast 1353 mutant assessed as drug level required to produce 12 mm zone of inhibition. In kind it is functional.
The test system of assay [4] is Saccharomyces cerevisiae. Briefly: DNA damaging activity against yeast Sc7 mutant assessed as drug level required to produce 12 mm zone of inhibition. In kind it is functional.
The next assay relates to A2780. As to the kind of experiment: Cytotoxicity against human A2780 cells. In kind it is functional, cell-based.

Converted amounts (≈) assume the structure as drawn.

Take `C/C=C(/C)C(=O)O[C@H]1[C@H](OC(=O)C=C(C)C)[C@@]2(CO)[C@H](CC1(C)C)C1=CC[C@@H]3[C@@]4(C)CC[C@H](O[C@@H]5O[C@H](C(=O)O)[C@@H](O[C@H]6O[C@H](CO)[C@@H](O)[C@@H]6O)[C@H](O[C@H]6OC[C@@H](O)[C@@H](O)[C@@H]6O)[C@H]5O[C@@H]5O[C@H](CO)[C@@H](O)[C@H](O)[C@H]5O)C(C)(C)[C@@H]4CC[C@@]3(C)[C@]1(C)[C@@H](O)[C@H]2O` [PITTOVIRIDOSIDE]: the IC12 in the assay on Saccharomyces cerevisiae [1] amounted to 85 µg/mL; in the assay with Saccharomyces cerevisiae [2] it was 80 µg/mL; with Saccharomyces cerevisiae [3], 140 µg/mL; with Saccharomyces cerevisiae [4], 100 µg/mL. In the assay on A2780, the half-inhibitory concentration (IC50) (as a rule, the concentration that inhibits the measured activity by half) was found to be 10.1 µg/mL (≈ 7.93 µM).
